Measured values: ChEMBL document CHEMBL4673282, “Identification of a New Heterocyclic Scaffold for Inhibitors of the Polo-Box Domain of Polo-like Kinase 1” (J Med Chem, 2020)
pIC50: −log10 of the molar value. ≈ marks a conversion by molar mass, not a printed value. Calls of active or inactive are those of the source. The rule behind the calls is not given here.

Key:
[1] = target: Serine/threonine-protein kinase PLK3 (Homo sapiens) (UniProt Q9H4B4); test: Inhibition of FITC-Ahx-DPPLHSpTAI-NH2 binding to Plk3 PBD (unknown origin) expressed in bacterial expression system measured after 30 mins by fluorescence polarization assay
Chain of Serine/threonine-protein kinase PLK3 (Homo sapiens) (Q9H4B4 whole entry, looked up): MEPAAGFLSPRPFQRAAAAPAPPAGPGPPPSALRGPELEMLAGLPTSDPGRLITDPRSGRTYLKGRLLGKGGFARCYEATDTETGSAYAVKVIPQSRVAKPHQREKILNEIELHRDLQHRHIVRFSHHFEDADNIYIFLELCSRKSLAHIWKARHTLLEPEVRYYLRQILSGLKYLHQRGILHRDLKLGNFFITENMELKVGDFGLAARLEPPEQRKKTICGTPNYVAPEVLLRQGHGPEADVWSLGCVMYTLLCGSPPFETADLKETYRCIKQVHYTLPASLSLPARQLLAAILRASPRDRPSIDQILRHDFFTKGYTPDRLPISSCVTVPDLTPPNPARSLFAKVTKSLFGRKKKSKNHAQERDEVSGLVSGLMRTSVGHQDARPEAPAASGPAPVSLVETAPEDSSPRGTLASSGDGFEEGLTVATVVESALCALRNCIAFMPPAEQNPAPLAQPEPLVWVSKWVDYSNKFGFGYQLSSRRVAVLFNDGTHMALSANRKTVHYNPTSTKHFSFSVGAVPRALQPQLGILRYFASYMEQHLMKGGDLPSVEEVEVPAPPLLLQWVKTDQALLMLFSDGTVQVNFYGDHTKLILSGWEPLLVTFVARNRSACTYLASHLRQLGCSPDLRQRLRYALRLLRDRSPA

[2] = in vitro; conditions: PAMPA
Description: Permeability of the compound by PAMPA

[3] = Half life in rat liver microsomes at 1 uM measured up to 60 mins in presence of NADPH generating system; conditions: 1 h
[4] = Aqueous solubility of compound; type: physicochemical; conditions: buffer
[5] = tested on: HeLa; test: Induction of mitotic arrest in human HeLa cells assessed as rounded cells with apoptosis at 100 uM measured after 12 hrs by DAPI staining based phase contrast microscopic analysis; type: functional, cell-based
[6] = tested on: HeLa; test: Induction of mitotic arrest in human HeLa cells assessed as apperance of aberrant chromosomal morphology at 100 uM measured after 12 hrs by DAPI staining based phase contrast microscopic analysis; type: functional, cell-based
[7] = target: T1, Serine/threonine-protein kinase PLK1 (Homo sapiens, UniProt P53350); test: Inhibition of biotin-Ahx-CETFDPPLHSpTAI-NH2 binding to recombinant human full-length HA-EGFP-tagged Plk1 PBD expressed in HEK293A cells preincubated for 30 mins followed by biotin-Ahx-CETFDPPLHSpTAI-NH2 addition and measured after 1 hr by 3,3',5,5'-tetramethylbenzidine substrate based ELISA; type: cell-based, HEK293-A
T1 sequence (P53350 whole entry): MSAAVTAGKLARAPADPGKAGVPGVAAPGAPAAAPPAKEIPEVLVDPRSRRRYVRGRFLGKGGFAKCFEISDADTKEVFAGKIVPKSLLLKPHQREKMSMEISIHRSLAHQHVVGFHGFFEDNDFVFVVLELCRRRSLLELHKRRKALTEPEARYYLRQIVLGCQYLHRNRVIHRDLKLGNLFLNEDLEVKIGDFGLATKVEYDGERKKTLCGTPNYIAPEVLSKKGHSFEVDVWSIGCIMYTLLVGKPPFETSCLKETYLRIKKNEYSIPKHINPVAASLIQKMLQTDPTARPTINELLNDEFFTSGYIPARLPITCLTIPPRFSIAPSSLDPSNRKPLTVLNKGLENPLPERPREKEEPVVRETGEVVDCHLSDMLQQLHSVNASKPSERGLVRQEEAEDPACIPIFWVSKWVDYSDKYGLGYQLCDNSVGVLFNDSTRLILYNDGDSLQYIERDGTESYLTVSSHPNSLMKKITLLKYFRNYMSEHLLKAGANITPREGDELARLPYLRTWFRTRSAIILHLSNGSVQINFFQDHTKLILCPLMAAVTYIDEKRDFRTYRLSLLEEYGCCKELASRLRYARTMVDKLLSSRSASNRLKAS

[8] = target: Muscarinic acetylcholine receptor M3 (Homo sapiens, UniProt P20309); test: Inhibition of M3 (unknown origin) at 10 uM relative to control
Chain of Muscarinic acetylcholine receptor M3 (P20309 whole entry): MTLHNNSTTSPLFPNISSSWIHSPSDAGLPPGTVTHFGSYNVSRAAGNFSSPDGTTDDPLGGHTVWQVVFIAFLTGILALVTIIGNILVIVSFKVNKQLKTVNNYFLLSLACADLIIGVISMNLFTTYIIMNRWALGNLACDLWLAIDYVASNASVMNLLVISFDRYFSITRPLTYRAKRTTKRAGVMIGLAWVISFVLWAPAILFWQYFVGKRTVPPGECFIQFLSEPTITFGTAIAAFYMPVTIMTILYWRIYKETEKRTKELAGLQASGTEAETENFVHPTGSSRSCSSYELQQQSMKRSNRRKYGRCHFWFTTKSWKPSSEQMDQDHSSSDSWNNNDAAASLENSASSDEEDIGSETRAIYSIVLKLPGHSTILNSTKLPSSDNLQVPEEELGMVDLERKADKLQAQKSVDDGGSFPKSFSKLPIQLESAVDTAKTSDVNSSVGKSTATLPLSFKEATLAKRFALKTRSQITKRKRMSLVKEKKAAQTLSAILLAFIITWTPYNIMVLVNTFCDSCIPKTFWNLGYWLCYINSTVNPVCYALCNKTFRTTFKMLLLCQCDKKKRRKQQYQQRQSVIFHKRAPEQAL

[9] = target: T2, Muscarinic acetylcholine receptor M5 (Homo sapiens, UniProt P08912); test: Inhibition of M5 (unknown origin) at 10 uM relative to control
T2 sequence (P08912 whole entry): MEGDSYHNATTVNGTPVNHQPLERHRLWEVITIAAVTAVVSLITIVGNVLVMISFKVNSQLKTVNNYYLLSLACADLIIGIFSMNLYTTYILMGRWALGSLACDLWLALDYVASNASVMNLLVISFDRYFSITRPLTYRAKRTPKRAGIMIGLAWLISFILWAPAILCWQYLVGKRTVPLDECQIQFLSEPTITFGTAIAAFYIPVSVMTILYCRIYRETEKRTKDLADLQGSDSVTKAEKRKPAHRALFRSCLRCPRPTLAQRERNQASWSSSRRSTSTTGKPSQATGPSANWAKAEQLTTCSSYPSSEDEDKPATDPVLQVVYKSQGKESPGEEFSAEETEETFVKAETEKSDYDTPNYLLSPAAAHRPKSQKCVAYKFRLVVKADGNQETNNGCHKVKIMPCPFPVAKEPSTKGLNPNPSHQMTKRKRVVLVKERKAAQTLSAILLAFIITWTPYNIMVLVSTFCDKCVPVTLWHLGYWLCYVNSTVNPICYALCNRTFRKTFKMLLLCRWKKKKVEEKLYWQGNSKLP

[10] = target: T3, Muscarinic acetylcholine receptor M4 (Homo sapiens, UniProt P08173); test: Inhibition of M4 (unknown origin) at 10 uM relative to control
T3 sequence (P08173 whole entry): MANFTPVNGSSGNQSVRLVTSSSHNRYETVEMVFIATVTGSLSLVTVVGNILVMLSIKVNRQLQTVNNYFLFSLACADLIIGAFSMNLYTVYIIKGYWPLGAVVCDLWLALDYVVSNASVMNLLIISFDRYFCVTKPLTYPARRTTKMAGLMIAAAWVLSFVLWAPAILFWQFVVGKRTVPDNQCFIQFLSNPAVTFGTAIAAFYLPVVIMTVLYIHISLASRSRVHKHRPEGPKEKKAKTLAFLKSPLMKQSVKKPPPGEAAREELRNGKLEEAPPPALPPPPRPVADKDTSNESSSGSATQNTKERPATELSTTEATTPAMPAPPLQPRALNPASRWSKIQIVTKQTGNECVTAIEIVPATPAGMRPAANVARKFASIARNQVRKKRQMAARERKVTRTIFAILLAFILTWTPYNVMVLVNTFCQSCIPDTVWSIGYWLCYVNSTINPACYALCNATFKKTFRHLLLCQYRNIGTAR

[11] = target: Serine/threonine-protein kinase PLK2 (Homo sapiens, UniProt Q9NYY3); test: Inhibition of FITC-Ahx-DPPLHSpTAI-NH2 binding to Plk2 PBD (unknown origin) expressed in bacterial expression system measured after 30 mins by fluorescence polarization assay; conditions: 0.5 h
Chain of Serine/threonine-protein kinase PLK2 (Q9NYY3 whole entry): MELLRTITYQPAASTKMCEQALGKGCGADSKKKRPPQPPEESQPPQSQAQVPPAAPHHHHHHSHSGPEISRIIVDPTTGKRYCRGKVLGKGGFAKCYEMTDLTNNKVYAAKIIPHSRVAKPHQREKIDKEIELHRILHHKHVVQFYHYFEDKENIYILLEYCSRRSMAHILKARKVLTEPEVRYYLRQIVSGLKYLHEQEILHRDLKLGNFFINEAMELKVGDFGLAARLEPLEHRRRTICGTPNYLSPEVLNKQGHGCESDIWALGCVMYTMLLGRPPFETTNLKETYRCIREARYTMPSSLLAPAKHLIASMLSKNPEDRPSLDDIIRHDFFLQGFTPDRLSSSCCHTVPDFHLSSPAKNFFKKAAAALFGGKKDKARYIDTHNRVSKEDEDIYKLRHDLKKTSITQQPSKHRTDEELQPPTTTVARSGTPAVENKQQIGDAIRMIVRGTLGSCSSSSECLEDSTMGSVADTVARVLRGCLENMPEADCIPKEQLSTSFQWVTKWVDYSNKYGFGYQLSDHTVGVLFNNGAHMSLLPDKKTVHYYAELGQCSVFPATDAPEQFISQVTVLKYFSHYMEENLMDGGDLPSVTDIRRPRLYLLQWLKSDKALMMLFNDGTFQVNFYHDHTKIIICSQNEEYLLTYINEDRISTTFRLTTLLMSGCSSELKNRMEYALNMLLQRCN

[12] = Half life in human cytosol; type: ADME, subcellular
[13] = Half life in mouse cytosol; type: ADME, subcellular
[14] = Half life in rat cytosol; type: ADME, subcellular
[15] = Drug metabolism in C57BL/6 mouse assessed as demethylation in serum at 20 mg/kg, ip measured after 15 to 240 mins by UPLC-ESI-QTOFMS analysis; type: ADME, organism-based; conditions: in vivo, time 15-240 min
[16] = Drug metabolism in C57BL/6 mouse assessed as hydroxylation in serum at 20 mg/kg, ip measured after 15 mins by UPLC-ESI-QTOFMS analysis; type: ADME, organism-based; conditions: in vivo
[17] = target: T1, Serine/threonine-protein kinase PLK1; test: Inhibition of Plk1 PBD in human HeLa cells assessed as reduction in plk1 localization to kinetochores at 100 uM measured after 12 hrs by immunostaining based assay; type: cell-based
[18] = target: T1, Serine/threonine-protein kinase PLK1; test: Inhibition of Plk1 PBD in human HeLa cells assessed as reduction in plk1 localization to centrosomes at 100 uM measured after 12 hrs by immunostaining based assay; type: cell-based
[19] = Toxicity in C57BL/6 mouse at 20 mg/kg, ip; type: organism-based; conditions: in vivo
[20] = tested on: HeLa; test: Antiproliferative activity against human HeLa cells assessed as reduction in cell population at 100 uM measured after 3 days by DAPI staining based phase contrast microscopic analysis relative to control; type: functional; set-up: scale not given: the % may be the effect or the level left; conditions: time 3 day
[21] = tested on: HeLa; test: Induction of mitotic arrest in human HeLa cells assessed as abnormal spindle morphology at 100 uM measured after 12 hrs by DAPI staining based immunoassay; type: functional, cell-based

Structure (SMILES)	Papp [2] [×10⁻⁶ cm/s]	t1/2 [3] [min]	solubility [4] [µg/mL]	other results
CC(=O)N1CCC[C@H]1C(=O)N[C@@H](CC(C)C)C(=O)N[C@@H](Cc1cnc[nH]1)C(=O)N[C@@H](CO)C(=O)N[C@H](C(=O)O)[C@@H](C)OP(=O)(O)O				inhibition [1]: inactive
O=c1c2ccccc2n2c(=S)[nH]nc2n1CCC(F)(F)F	82	> 30	23.3 (≈ 74.1 µM)	
CCCn1c(=O)c2cccc(F)c2n2c(SC)nnc12				Activity [5]: Active; Activity [6]: Active
CN(C)c1ccc2c(c1)c(=O)n(CCc1ccccc1)c1n[nH]c(=S)n21	356	13.3	< 1	
CC(C)CCn1c(=O)c2ccccc2n2c(=S)[nH]nc12			8 (≈ 27.7 µM)	pIC50 [7]: 5.76
NCCCn1c(=O)c2cc(F)ccc2n2c(=S)[nH]nc12	16.8	> 30	27 (≈ 92 µM)	inhibition at 10 µM [8]: 100%; inhibition at 10 µM [9]: 84%; inhibition at 10 µM [10]: 73%
CCOCCCn1c(=O)c2ccccc2n2c(S)nnc12			15.5 (≈ 50.9 µM)	pIC50 [7]: 5.77
O=c1c2cc(F)ccc2n2c(=S)[nH]nc2n1CCc1ccc(Cl)cc1	< 1	> 30	1.2 (≈ 3.2 µM)	
C=CCn1c(=O)c2ccccc2n2c(S)nnc12			19.4 (≈ 75.1 µM)	pIC50 [7]: 5.88
O=c1c2cc(Cl)ccc2n2c(=S)[nH]nc2n1CCC(F)(F)F	257	> 30	5.1 (≈ 14.6 µM)	
O=c1c2cc(F)ccc2n2c(=S)[nH]nc2n1CCN1CCOCC1	67	> 30	> 52	
O=c1c2cc(F)ccc2n2cnnc2n1CCc1ccccc1	924	11.8	14.8 (≈ 48 µM)	
O=C(NCCCn1c(=O)c2cc(F)ccc2n2c(=S)[nH]nc12)C1CCCC1	155	> 30	> 58	
O=c1c2cc(F)ccc2n2c(=S)[nH]nc2n1CC1CC1	46	> 30	16.2 (≈ 55.8 µM)	inhibition [1]: inactive; inhibition (INH) [11]: Not Active
O=c1c2cc(F)ccc2n2c(=S)[nH]nc2n1CCc1cccnc1	< 1	> 30	25.1 (≈ 73.5 µM)	
O=c1c2cc(F)ccc2n2c(=S)[nH]nc2n1CCCO	222	> 30	> 43	
O=c1c2ccc(F)cc2n2c(=S)[nH]nc2n1CCc1ccccc1	91	22.7	< 1	
CCCCn1c(=O)c2ccccc2n2c(S)nnc12	77.5	> 30	8.5 (≈ 31 µM)	pIC50 [7]: 5.99
CC(=O)NCCCn1c(=O)c2cc(F)ccc2n2c(=S)[nH]nc12	18	> 30	> 50	
NS(=O)(=O)CCCC(=O)NCCCn1c(=O)c2cc(F)ccc2n2c(=S)[nH]nc12	3	> 30	42.4 (≈ 95.8 µM)	

Structure (SMILES)	Papp [2] [×10⁻⁶ cm/s]	t1/2 [3] [min]	solubility [4] [µg/mL]	other results
CC(=O)Nc1ccc2c(c1)c(=O)n(CCc1ccccc1)c1n[nH]c(=S)n21	253	> 30	2.2 (≈ 5.8 µM)	
CC(=O)N1CCC[C@H]1C(=O)N[C@@H](CC(C)C)C(=O)N[C@@H](Cc1cnc[nH]1)C(=O)N[C@@H](CO)C(=O)N[C@H](C(=O)O)[C@@H](C)O				inhibition [1]: inactive
COc1cccc(CC(=O)NCCCn2c(=O)c3cc(F)ccc3n3c(=S)[nH]nc23)c1	300	20.1		solubility ([4]; read-out: solubility): > 65 µg/mL
CCCn1c(=O)c2cc(F)ccc2n2c(SC)nnc12				t1/2 [12]: <= 120 min; t1/2 [13]: <= 120 min; t1/2 [14]: <= 120 min; Activity [5]: Active; Activity [6]: Active
CCCn1c(=O)c2ccccc2n2c(SC)nnc12				Drug metabolism [15]: Metabolite_Detected; Drug metabolism [16]: Metabolite_Detected; inhibition [17]: 50%; t1/2 [12]: <= 120 min; inhibition [18]: 20%; Activity [19]: Non-Toxic; t1/2 [13]: <= 120 min; Activity [20]: 50%; pIC50 [7]: < 4.30; t1/2 [14]: <= 120 min; Activity [21]: Active; Activity [5]: Active; Activity [6]: Active
Cc1cccc(-n2c(=O)c3ccccc3n3c(S)nnc23)c1C				pIC50 [7]: 5.73
CCCn1c(=O)c2ccccc2n2c(=S)n(CC(=O)c3ccccc3)nc12				pIC50 [7]: < 4.30
NCCCn1c(=O)c2cc(F)ccc2n2c(=S)[nH]nc12.O=C(O)C(F)(F)F	< 1	> 30	> 43	
O=c1c2cc(Br)ccc2n2c(=S)[nH]nc2n1CCc1ccccc1	162	> 30	< 1	
COCCCn1c(=O)c2ccccc2n2c(S)nnc12			31.2 (≈ 107 µM)	pIC50 [7]: 5.76
CC(C)(C)OC(=O)NCCCCCC(=O)NCCCn1c(=O)c2cc(F)ccc2n2c(=S)[nH]nc12	405	> 30	> 75	
CC(C)(C)OC(=O)NC1CCC(C(=O)NCCCn2c(=O)c3cc(F)ccc3n3c(=S)[nH]nc23)CC1 (racemic)	330	24.8	> 77	
CN(C)CCn1c(=O)c2cc(F)ccc2n2c(=S)[nH]nc12	117	> 30	> 45	
CNC(=S)N1CN(CCc2ccccc2)C(=O)c2cc(F)ccc21	161	2.2	4.5 (≈ 13.1 µM)	
O=c1c2cc(F)ccc2n2c(=S)[nH]nc2n1CCc1ccccn1	355	> 30	13 (≈ 38.1 µM)	
O=C(NCCCn1c(=O)c2cc(F)ccc2n2c(=S)[nH]nc12)c1ccccc1	267	> 30	21.9 (≈ 55.1 µM)	
O=C(O)CCC(=O)NCCCn1c(=O)c2cc(F)ccc2n2c(=S)[nH]nc12	< 1	> 30	> 58	
CCCCCn1c(=O)c2ccccc2n2c(S)nnc12			4.2 (≈ 14.6 µM)	pIC50 [7]: 5.71
O=C(CN1CCOCC1)NCCCn1c(=O)c2cc(F)ccc2n2c(=S)[nH]nc12	< 1	> 30	> 62	
O=c1c2cc(F)ccc2n2c(=S)[nH]nc2n1CCN1CCCCC1	358	> 30	2.4 (≈ 6.91 µM)	
